# According to paper PMC5414855 (Toxicological Sciences, 2017):
# Legend:
# [1] = test system: zebrafish AHR1A, AHR1B, and AHR2; experiment: Antisense morpholino knockdown, any of the morpholinos; type: in vivo
# [2] = test system: 21 AHR-related, cardiac stress-related and oxidative stress gene transcripts
# AHR2 = target: T1, AHR2 (Danio rerio, UniProt Q9YGV3); experiment: Antisense morpholino knockdown of AHR2 in Tg; type: in vivo, zebrafish; settings: for expression in the skin and vasculature in AHR2 morphants: not shown
# T1 sequence (Q9YGV3 1-1027): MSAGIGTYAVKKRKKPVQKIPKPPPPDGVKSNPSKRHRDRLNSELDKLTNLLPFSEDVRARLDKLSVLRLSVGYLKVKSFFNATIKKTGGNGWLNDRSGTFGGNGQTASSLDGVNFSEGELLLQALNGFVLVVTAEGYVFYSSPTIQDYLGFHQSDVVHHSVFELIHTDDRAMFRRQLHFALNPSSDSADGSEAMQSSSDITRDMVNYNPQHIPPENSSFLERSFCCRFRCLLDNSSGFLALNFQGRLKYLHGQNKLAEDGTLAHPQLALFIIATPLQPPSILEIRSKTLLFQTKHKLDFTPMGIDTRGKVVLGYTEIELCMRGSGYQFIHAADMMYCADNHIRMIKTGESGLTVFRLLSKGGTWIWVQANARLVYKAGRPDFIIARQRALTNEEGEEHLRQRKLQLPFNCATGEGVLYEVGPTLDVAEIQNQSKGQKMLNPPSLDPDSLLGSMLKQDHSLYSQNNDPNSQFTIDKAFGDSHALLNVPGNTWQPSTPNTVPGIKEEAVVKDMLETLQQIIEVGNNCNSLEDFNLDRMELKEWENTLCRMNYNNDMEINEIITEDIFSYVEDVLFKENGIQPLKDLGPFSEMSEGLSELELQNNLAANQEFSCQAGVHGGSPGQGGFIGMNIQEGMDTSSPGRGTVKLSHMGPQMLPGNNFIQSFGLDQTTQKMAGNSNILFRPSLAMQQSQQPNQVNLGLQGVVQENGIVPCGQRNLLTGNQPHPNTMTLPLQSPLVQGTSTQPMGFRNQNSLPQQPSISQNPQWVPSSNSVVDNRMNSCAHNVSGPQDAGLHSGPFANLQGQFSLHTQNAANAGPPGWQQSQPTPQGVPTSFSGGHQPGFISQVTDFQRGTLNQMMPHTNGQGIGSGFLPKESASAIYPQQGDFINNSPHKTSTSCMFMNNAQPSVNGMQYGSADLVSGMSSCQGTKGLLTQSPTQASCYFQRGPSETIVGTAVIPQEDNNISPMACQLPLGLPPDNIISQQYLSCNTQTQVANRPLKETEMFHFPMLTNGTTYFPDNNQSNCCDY
# arg2 = settings: 48 hpf embryos; dependent on AHR2; ref Goodale et al., 2015; cited from earlier work
# cyp1a/GFP = settings: ref Goodale et al., 2015; cited from earlier work
# zebrafish embryos [3] = settings: zebrafish embryos exposed 6 to 120 hpf; beyond the range of concentrations tested and beyond the range of accuracy of the EC50 model
# AHR1A = experiment: Antisense morpholino knockdown of AHR1A in Tg; type: in vivo, zebrafish; settings: for cyp1a/GFP expression in the livers in AHR1A morphants: single concentration
# zebrafish embryos [4] = experiment: animal or person; settings: Danio rerio, read-out: EC50, calculated value beyond the range of concentrations tested, zebrafish embryos exposed 6 to 120 hpf; beyond the range of concentrations tested and beyond the range of accuracy of the EC50 model
# cyp1a = settings: transgenic Japanese Medaka; ref Ng and Gong, 2013; cited from earlier work
smiles,measurement,setting,value
"O=[N+]([O-])c1cc([N+](=O)[O-])c2ccc3cccc4ccc1c2c43 [1,3-dinitropyrene]",cyp1a/GFP expression in the yolk after injection with any of the morpholinos,[1],did not appear to decrease
same,"expression of nppb, increase","[2]; 3.56 µM, 120 hpf",23 fold
same,"expression of myl7, significant increase",[2]; 48 hpf,2 fold
same,number of differentially expressed genes,"[2]; 48 hpf, suite of 21 genes",4
"O=[N+]([O-])c1ccc2ccc3c([N+](=O)[O-])ccc4ccc1c2c43 [1,6-dinitropyrene]","cyp1a/GFP expression in the vasculature and/or skin (and neuromasts, for 7-nitrobenzo[k]fluoranthene) following knockdown of AHR2",AHR2,near-complete inhibition
same,toxicity in AHR2 morphants,AHR2,Decreased toxicity
same,expression in the skin and vasculature in AHR2 morphants,AHR2,reduced
same,"expression of cyp1a, cyp1b1, cyp1c1, and cyp1c2","[2]; 5 µM, at 48 and 120 hpf, vs DMSO control",Significantly increased expression
same,"expression of cyp1a1, increase","[2]; 48 hpf, compared to the DMSO exposed controls","1,963 fold"
same,expression of arg2,[2]; 120 hpf,significantly increased expression
"O=C1c2ccccc2-c2cccc3cccc1c23 [1,9-benz-10-anthrone]",arg2 expression,arg2,significantly elevated
same,cyp1a/GFP expression in the syncytial layer of the yolk,cyp1a/GFP,previously observed
O=[N+]([O-])c1ccc2cc3ccccc3cc2c1 [2-nitroanthracene],"EC50, calculated value beyond the range of concentrations tested",zebrafish embryos [3],beyond the tested range of concentrations
"O=[N+]([O-])c1c2c(cc3ccccc13)-c1ccc([N+](=O)[O-])c3cccc-2c13 [3,7-dinitrobenzo[k]fluoranthene]","cyp1a/GFP expression in the vasculature and/or skin (and neuromasts, for 7-nitrobenzo[k]fluoranthene) following knockdown of AHR2",AHR2,near-complete inhibition
same,expression in the skin and vasculature in AHR2 morphants,AHR2,reduced
O=[N+]([O-])c1ccc2c3c(cccc13)-c1ccccc1-2 [3-nitrofluoranthene],cyp1a/GFP expression in the yolk after injection with any of the morpholinos,[1],did not appear to decrease
O=[N+]([O-])c1ccc2c3c(cccc13)CC2 [5-nitroacenaphthalene],observed developmental toxicity in AHR1A morphants,AHR1A,did not result in a substantial decrease
same,cyp1a/GFP expression in the livers in AHR1A morphants,AHR1A,eliminated
same,expression of arg2,[2]; 120 hpf,significantly increased expression
O=[N+]([O-])c1c2ccccc2cc2c1ccc1ccccc12 [7-nitrobenz[a]anthracene],EC50,zebrafish embryos [4],238 µM
same,"cyp1a/GFP expression in the vasculature and/or skin (and neuromasts, for 7-nitrobenzo[k]fluoranthene) following knockdown of AHR2",AHR2,near-complete inhibition
same,"GFP expression in AHR2 morphants, vasculature",AHR2; at both 48 and 120 hpf,Decreased GFP expression
same,"EC50, calculated value beyond the range of concentrations tested",zebrafish embryos [3],beyond the tested range of concentrations
O=[N+]([O-])c1c2c(cc3ccccc13)-c1cccc3cccc-2c13 [7-nitrobenzo[k]fluoranthene],cyp1a/GFP expression in the livers in AHR1A morphants,AHR1A,eliminated
same,"cyp1a/GFP expression in the vasculature and/or skin (and neuromasts, for 7-nitrobenzo[k]fluoranthene) following knockdown of AHR2",AHR2,near-complete inhibition
same,"GFP expression in AHR2 morphants, skin and neuromasts",AHR2; at both 48 and 120 hpf,Decreased GFP expression
same,"expression of cyp1a, cyp1b1, and cyp1c1","[2]; 50 µM, at 120 hpf, vs DMSO control",Significantly increased expression
same,expression of arg2,[2]; 120 hpf,significantly increased expression
O=[N+]([O-])c1cc2ccccc2c2ccccc12 [9-nitrophenanthrene],cyp1a/GFP expression in the livers in AHR1A morphants,AHR1A,eliminated
c1ccc2c(c1)oc1ccccc12 [Dibenzofuran],EC50,zebrafish embryos [4],228 µM
same,"EC50, calculated value beyond the range of concentrations tested",zebrafish embryos [3],beyond the tested range of concentrations
Clc1cc2c(cc1Cl)Oc1cc(Cl)c(Cl)cc1O2 [TCDD],expression of cyp1a in the neuromasts,cyp1a,observed previously
